# Data: patent US20140345648A1, “Oral Healthcare, Products and Methods Therefor” (OZOSPA HOLDINGS LIMITED, priority 2011, published 2014)
# Legend:
# [1] = test system: Streptococcus mutans ATCC 25175; assay: Challenge test of powder product, liquid product, xylitol and bicarbonate of soda (based on B.S.3286:1960), Example 4; format: cell-based; settings: for Streptococcus mutans ATCC 25175 Population Levels T = 0: Day 0, powders 1:5, liquid neat; for Streptococcus mutans ATCC 25175 Population Levels T = 2: Day 1, 2 hrs after 10 mls of fresh sol'n added; for Streptococcus mutans ATCC 25175 Population Levels T = 1: Day 1, prior to 10 mls of fresh sol'n added; for Streptococcus mutans ATCC 25175 Population Levels T = 4: Day 2, 2 hrs after 10 mls of fresh sol'n added; for Streptococcus mutans ATCC 25175 Population Levels T = 3: Day 2, prior to 10 mls of fresh sol'n added; for Streptococcus mutans ATCC 25175 Population Levels T = 6: Day 3, 2 hrs after 10 mls of fresh sol'n added; for Streptococcus mutans ATCC 25175 Population Levels T = 5: Day 3, prior to 10 mls of fresh sol'n added; for Streptococcus mutans ATCC 25175 Population Levels T = 8: Day 4, 2 hrs after 10 mls of fresh sol'n added; for Streptococcus mutans ATCC 25175 Population Levels T = 7: Day 4, prior to 10 mls of fresh sol'n added
# Experimental: (§1) The powder product and the liquid product were challenge tested against the organisms Streptococcus mutans and Porphyromonas gingivalis. […] The challenge method used was based on B.S.3286: 1960 “Method for Laboratory Evaluation of Disinfectant Activity of Quaternary Ammonium Compounds by Suspension Test Procedure”. This standard describes a test procedure for the laboratory evaluation of the activity of disinfectants, in which a suspension of viable microorganisms is added to solutions containing a pre-determined concentration of the disinfectant and the numbers of organisms surviving after a period of time is determined. A 1:5 solution of the powders with sterile deionised water was used for the challenge testing. The liquid product was used neat. The following organisms were used for the challenge testing: […] A modification will be made to the method by the addition of 10 ml of each solution each day, for 4 days. (The blank solution would have 10 ml of Neutralising buffer added.) […]
# [2] = test system: Porphyromonas gingivalis ATCC 3327; assay: as above; format: cell-based; settings: for Porphyromonas gingivalis ATCC 3327 Population Levels T = 0 / Porphyromonas gingivalis ATCC 3327 Population Levels T = 2 / Porphyromonas gingivalis ATCC 3327 Population Levels T = 1 / Porphyromonas gingivalis ATCC 3327 Population Levels T = 4 / Porphyromonas gingivalis ATCC 3327 Population Levels T = 3 / Porphyromonas gingivalis ATCC 3327 Population Levels T = 6 / Porphyromonas gingivalis ATCC 3327 Population Levels T = 5 / Porphyromonas gingivalis ATCC 3327 Population Levels T = 8 / Porphyromonas gingivalis ATCC 3327 Population Levels T = 7: Table 7; for Porphyromonas gingivalis ATCC 3327 Population Levels T = 0: Day 0, powders 1:5, liquid neat; for Porphyromonas gingivalis ATCC 3327 Population Levels T = 2: Day 1, 2 hrs after 10 mls of fresh sol'n added; for Porphyromonas gingivalis ATCC 3327 Population Levels T = 1: Day 1, prior to 10 mls of fresh sol'n added; for Porphyromonas gingivalis ATCC 3327 Population Levels T = 4: Day 2, 2 hrs after 10 mls of fresh sol'n added; for Porphyromonas gingivalis ATCC 3327 Population Levels T = 3: Day 2, prior to 10 mls of fresh sol'n added; for Porphyromonas gingivalis ATCC 3327 Population Levels T = 6: Day 3, 2 hrs after 10 mls of fresh sol'n added; for Porphyromonas gingivalis ATCC 3327 Population Levels T = 5: Day 3, prior to 10 mls of fresh sol'n added; for Porphyromonas gingivalis ATCC 3327 Population Levels T = 8: Day 4, 2 hrs after 10 mls of fresh sol'n added; for Porphyromonas gingivalis ATCC 3327 Population Levels T = 7: Day 4, prior to 10 mls of fresh sol'n added; for effect against the Porphyromonas gingivalis population (in words): controlled laboratory test
# Experimental: as §1
SMILES,Streptococcus mutans ATCC 25175 Population Levels T = 0 [1],Streptococcus mutans ATCC 25175 Population Levels T = 2 [1],Streptococcus mutans ATCC 25175 Population Levels T = 1 [1],Streptococcus mutans ATCC 25175 Population Levels T = 4 [1],Streptococcus mutans ATCC 25175 Population Levels T = 3 [1],Streptococcus mutans ATCC 25175 Population Levels T = 6 [1],Streptococcus mutans ATCC 25175 Population Levels T = 5 [1],Streptococcus mutans ATCC 25175 Population Levels T = 8 [1] [cfu/ml],Streptococcus mutans ATCC 25175 Population Levels T = 7 [1],"reduction in the Streptococcus mutans population ([1]; over the 5 days, Example 4) [log]",Porphyromonas gingivalis ATCC 3327 Population Levels T = 0 [2],Porphyromonas gingivalis ATCC 3327 Population Levels T = 2 [2],Porphyromonas gingivalis ATCC 3327 Population Levels T = 1 [2],Porphyromonas gingivalis ATCC 3327 Population Levels T = 4 [2],Porphyromonas gingivalis ATCC 3327 Population Levels T = 3 [2],Porphyromonas gingivalis ATCC 3327 Population Levels T = 6 [2],Porphyromonas gingivalis ATCC 3327 Population Levels T = 5 [2],Porphyromonas gingivalis ATCC 3327 Population Levels T = 8 [2],Porphyromonas gingivalis ATCC 3327 Population Levels T = 7 [2],effect against the Porphyromonas gingivalis population (in words) [2]
"O=C([O-])O.[Na+] [Bicarbonate of Soda solution, Sodium Bicarbonate]",1.5 × 10^7 cfu/ml,3.4 × 10^5 cfu/ml,1.8 × 10^6 cfu/ml,3.2 × 10^4 cfu/ml,6.7 × 10^4 cfu/ml,2.8 × 10^3 cfu/ml,7.7 × 10^3 cfu/ml,10,1.2 × 10^2 cfu/ml,6,2.5 × 10^6 cfu/ml,3.1 × 10^5 cfu/ml,5.9 × 10^5 cfu/ml,1.1 × 10^5 cfu/ml,1.2 × 10^5 cfu/ml,3.3 × 10^4 cfu/ml,2.4 × 10^4 cfu/ml,2.8 × 10^3 cfu/ml,4.8 × 10^3 cfu/ml,did not appear to be effective on its own
"OC[C@@H](O)[C@H](O)[C@@H](O)CO [Xylitol solution, Xylitol]",1.5 × 10^7 cfu/ml,5.2 × 10^5 cfu/ml,7.8 × 10^6 cfu/ml,2.6 × 10^4 cfu/ml,1.0 × 10^5 cfu/ml,1.6 × 10^4 cfu/ml,1.0 × 10^4 cfu/ml,<10,30 cfu/ml,–,2.6 × 10^6 cfu/ml,1.9 × 10^3 cfu/ml,9.1 × 10^3 cfu/ml,<10 cfu/ml,20 cfu/ml,<10 cfu/ml,<10 cfu/ml,<10 cfu/ml,<10 cfu/ml,reasonably effective
